Laboratory results: BindingDB's records for doi:10.1016/j.ejmech.2014.01.004 (Future University, 2014)

Target: T1, Dihydrofolate reductase (Bos taurus, UniProt P00376)
T1 sequence (P00376 whole entry): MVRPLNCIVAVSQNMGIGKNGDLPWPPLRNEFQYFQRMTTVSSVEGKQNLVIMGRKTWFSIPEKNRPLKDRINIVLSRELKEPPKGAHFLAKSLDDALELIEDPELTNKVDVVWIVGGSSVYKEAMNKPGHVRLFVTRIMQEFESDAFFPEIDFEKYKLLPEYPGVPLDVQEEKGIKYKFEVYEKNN
Assay: Inhibition of bovine liver DHFR measured for every 1 min of 10 mins

SMILES	IC50
Clc1cc2c(cc1Cl)N=C(c1ccc(Br)cc1)C1CCCC(=Cc3ccc(Br)cc3)C1=N2 (configuration not stated)	100 nM
COc1ccc(C=C2CCCC3C2=Nc2cc(C)c(C)cc2N=C3c2ccc(OC)cc2)cc1 (configuration not stated)	100 nM
